# Test results taken from patent US20050014682A1 (priority 2003, published 2005).
# Read-outs that look alike come from different tables or passages of the source. Starred links: 1 amine or outer side, 2 acyl side, 3 side chain; linkers in the order of their positions; H or OH if unused. Positions of bridges follow the written chain, without caps; N, C: chain ends. Non-standard residues stand in square brackets, D forms with d. Residues, ends and D or L forms follow the SMILES beside them. Adda = CO[C@@H](Cc1ccccc1)[C@@H](C)/C=C(C)/C=C/[C@H](N[*:1])[C@H](C)C(=O)[*:2]; dAsp(3S-Me) = C[C@H](C(=O)[*:3])[C@@H](N[*:1])C(=O)[*:2]; d(γGlu) = O=C(O)[C@@H](CCC(=O)[*:2])N[*:1]; NMeDha = C=C(NC)C(=O)O
# Key:
# Akt = assay: Cell-free in vitro assay (3T3-L1 adipocyte PM/CYT/LDM fractions), Akt phosphorylation by phospho-Akt immunoblot; format: biochemical; conditions: for ability of phosphatidylinositol lipids to stimulate Thr308 and Ser473 phosphorylation of Akt: data not shown
# PDK2 = PDK2 activity in in vitro reactions at different chloride concentrations; format: biochemical
# [1] = 10 μM PIP3 added to CYT alone, non-insulin treated cells, 15 min at 37° C.
# [2] = 10 μM PIP3 added to CYT and LDM, 15 min at 37° C.
compound,measurement,setting,value
"phosphatidylinositol(3,4)P2 [PI (3,4)P2]",ability of phosphatidylinositol lipids to stimulate Thr308 and Ser473 phosphorylation of Akt,Akt,could stimulate
"phosphatidylinositol(3,4,5)P3 [PIP3]",Ser473 phosphorylation of Akt,Akt; [1],occurred only marginally
same,Thr308 phosphorylation of Akt,Akt; [1],efficient phosphorylation
same,Ser473 signal,Akt; [2],robust
same,Thr308 signal relative to reaction containing CYT alone,Akt; [2],not further enhanced
same,ability of phosphatidylinositol lipids to stimulate Thr308 and Ser473 phosphorylation of Akt,Akt,could stimulate
Cl [chloride],PIP3-induced Ser473 phosphorylation,Akt,completely inhibited
same,insulin-stimulated phosphorylation of both Thr308 and Ser473,"Akt; 145 mM chloride (140 mM KCl/5 mM NaCl or 145 mM NaCl), PM and CYT",almost completely suppressed
same,PIP3-stimulated Thr308 phosphorylation,"Akt; high chloride (145 mM), 10 μM PIP3, PM(−ins) and CYT",severely inhibited
same,chloride concentration that completely inhibits PDK2 activity,PDK2,> 100 mM
"C=C1C(=O)N[C@H](C)C(=O)N[C@@H](CC(C)C)C(=O)N[C@@H](C(=O)O)[C@H](C)C(=O)N[C@@H](CCCNC(=N)N)C(=O)N[C@@H](/C=C/C(C)=C/[C@H](C)[C@H](Cc2ccccc2)OC)[C@H](C)C(=O)N[C@@H](C(=O)O)CCC(=O)N1C [Microcystin, microcystin-LR] (R[Adda][d(γGlu)][NMeDha][dA]L[dAsp(3S-Me)]-OH; lactam N-7)",control (basal) phospho-Akt signal in reactions containing PM(−ins),Akt,elevated the basal signal only for the Ser473 site
same,signal for both Akt phosphorylation sites in reactions containing PM(+ins),Akt,increased the insulin-stimulated signal
O[C@@H](CS)[C@@H](O)CS [DTT],signal for both Akt phosphorylation sites in reactions containing PM(+ins),Akt; 15 min at 37° C.,appeared to inhibit the phospho-Akt signal in most cases
